# Experimental data reported in patent US20260297087A1, “Pyridoimidazolone Compounds, Preparation Thereof and Therapeutic Uses Thereof” (Sanofi, priority 2023, published 2026).
# Columns and labels:
# [1] = biological target: T1, ERK5 (activated catalytic domain) (Homo sapiens, UniProt Q13164); experiment: Cell-Free Assay of ERK5 Inhibition (Time-Resolved FRET, 4EBP1 peptide phosphorylation); format: biochemical; conditions: ERK5 catalytic domain 4 nM, 1 mM ATP, 1 μM biotinylated 4EBP1 peptide, 30 min at 37° C.; mean where repeated; read-out: Cell-free assay (IC50 in nM)
# T1 construct: purchased CarnaBiosciences 04-146
# T1 sequence (Q13164 55-347 limits assumed): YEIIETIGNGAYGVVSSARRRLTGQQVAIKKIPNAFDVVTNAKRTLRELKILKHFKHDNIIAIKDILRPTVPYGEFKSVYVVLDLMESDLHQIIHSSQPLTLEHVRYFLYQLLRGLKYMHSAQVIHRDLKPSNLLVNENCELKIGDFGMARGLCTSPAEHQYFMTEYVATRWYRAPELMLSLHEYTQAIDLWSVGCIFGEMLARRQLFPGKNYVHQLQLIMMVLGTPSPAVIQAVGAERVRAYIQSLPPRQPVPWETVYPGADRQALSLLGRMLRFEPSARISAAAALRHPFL
# Experimental: (§1) Two assays were performed to assess the ERK5 inhibitory activity of compounds of the Examples, a cell-based assay and a cell-free biochemical assay. Where repeat measurements were taken, the value reported is a mean average.
# An assay was performed to measure the capacity of each compound to inhibit ERK5 enzymatic activity. Compound potency was evaluated by Time-Resolved Forster Resonance Energy Transfer (FRET system). The activated catalytic domain of protein ERK5 (CarnaBiosciences #04-146) was mixed at 4 nM with varying concentrations of compound and incubated for 30 minutes at room temperature. A mixture of 1 mM ATP and 1 μM biotinylated synthetic peptide was added (Biosyntan GmbH). This synthetic peptide represents amino acids 30-52 of Eukaryotic translation initiation factor 4E-binding protein 1 (see, e.g., the sequence under accession No. NP_004086.1) biotinylated at the N-terminus. After 30 minutes at 37° C., the peptide phosphorylation by ERK5 was measured by addition of FRET reagents consisting of 12.5 μg/ml Streptavidin-XL665, 1 nM Anti-P-4EBP1 antibody and 300 ng/ml Anti-rabbit-K antibody. Following 90 minutes at room temperature fluorescent signals were read on the Pherastar FSX multimod detector from BMG Labtech (Exc° 340 nm, Em1 620 nm, Em2 665 nm). The IC50 values represent the concentration of compound which inhibits the measurable fluorescence signal by 50% as compared to the DMSO only control.
# ERK5 = biological target: T2, ERK5 (Homo sapiens, UniProt Q13164); experiment: Inhibition of Cellular ERK5 Activity (cell-based assay, MEF2 luciferase reporter in SN12C cells); conditions: renal cancer cell line SN12C, doxycycline-induced MEKSDD, mean where repeated
# T2 construct: MEF2-luciferase reporter
# T2 sequence (Q13164 whole entry): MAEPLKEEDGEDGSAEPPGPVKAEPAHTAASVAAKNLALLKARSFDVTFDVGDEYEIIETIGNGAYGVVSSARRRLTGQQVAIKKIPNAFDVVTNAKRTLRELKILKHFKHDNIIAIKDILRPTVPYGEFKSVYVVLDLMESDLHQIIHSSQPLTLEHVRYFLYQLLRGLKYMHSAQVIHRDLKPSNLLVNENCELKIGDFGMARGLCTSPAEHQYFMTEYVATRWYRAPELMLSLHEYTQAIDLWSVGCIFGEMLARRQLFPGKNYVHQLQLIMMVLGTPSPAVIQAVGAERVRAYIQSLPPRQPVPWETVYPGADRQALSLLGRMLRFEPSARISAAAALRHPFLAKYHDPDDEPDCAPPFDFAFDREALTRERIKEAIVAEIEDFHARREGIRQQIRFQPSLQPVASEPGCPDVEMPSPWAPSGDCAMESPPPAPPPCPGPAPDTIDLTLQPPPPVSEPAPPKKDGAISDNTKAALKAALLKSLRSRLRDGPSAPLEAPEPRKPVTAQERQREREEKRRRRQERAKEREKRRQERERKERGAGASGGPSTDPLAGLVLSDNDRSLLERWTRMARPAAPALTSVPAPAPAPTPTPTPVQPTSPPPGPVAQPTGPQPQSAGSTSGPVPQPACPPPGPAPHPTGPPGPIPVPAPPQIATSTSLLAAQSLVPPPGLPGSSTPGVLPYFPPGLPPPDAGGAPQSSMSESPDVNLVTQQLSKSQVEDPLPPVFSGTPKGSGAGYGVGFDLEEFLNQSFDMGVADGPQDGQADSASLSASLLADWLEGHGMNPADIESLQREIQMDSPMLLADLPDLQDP
# Experimental: as §1
# The renal cancer cell line SN12C was transduced by a lentivirus pGreenFire1 MEF2 EF1 Neo (ref TR030VA-N) from SBI using standard infection protocol. pGreenFire1 MEF2 EF1 Neo allows the expression of luciferase gene under the control of minimal promoter with MEF2 transcriptional response elements. Cells harboring the reporter construct were selected by geneticin treatment. The selected cells were then transposed by a piggyback based plasmid pCM4007 allowing the expression of constitutively activated MEKSDD under control of TREG3 promoter, a doxycycline regulated promoter. Transposed cells were selected by puromycin treatment. Upon doxycycline treatment (1p g/ml) MEKSDD was expressed. MEKSDD activates ERK5 that phosphorylates MEF2C protein. Activated MEF2C protein can bind to its transcriptional response elements. Then the luciferase is expressed. In a 96-well plate (96F nuncleon refl37101 thermofisher), 50,000 cells were inoculated in 142.5 μl of RPMI medium containing 10% fetal calf serum, 1% glutamine, and 1 μg/ml doxycycline. After 24 hours, compounds were added in 7.5 μl culture medium (with 2% DMSO to give a final concentration of 0.1%) in order to obtain the desired concentration (0.3-1000 nM). The luciferase activity was measured using the Kit Bright Glo Luminescent Cell Assay Cat E2610 (Promega) according to the manufacturer's protocol. Luminescence was determined using 0.2 second reading/well using a Tecan SPARK. IC50 values were calculated using XLFIT5 for Microsoft Excel using method 205. The IC50 values represent the concentration of compound which inhibits the measurable luminescence signal by 50% as compared to DMSO-treated control cells.
Structure (SMILES),IC50 [1],IC50 (ERK5)
"CN1CCC(Oc2cnc3[nH]c(=O)n(C4CCN(C(=O)c5ccc(OC(F)(F)F)cc5N)CC4)c3c2)CC1 [Example 7, 1-[1-[2-amino-4-(trifluoromethoxy)benzoyl]-4-piperidyl]-6-[(1-methyl-4-piperidyl)oxy]-3H-imidazo[4,5-b]pyridin-2-one]",63 nM,248 nM
"O=C(c1ccc(OC(F)(F)F)cc1)N1CCC(n2c(=O)[nH]c3ncc(C4CCOCC4)cc32)CC1 [Example 41, 6-tetrahydropyran-4-yl-1-[1-[4-(trifluoromethoxy)benzoyl]-4-piperidyl]-3H-imidazo[4,5-b]pyridin-2-one]",557 nM,152 nM
"O=C(c1ccc(OC(F)(F)F)cc1)N1CCC(n2c(=O)[nH]c3ncc(C4CCOC4)cc32)CC1 (racemic) [Example 15, (rac)-6-Tetrahydrofuran-3-yl-1-[1-[4-(trifluoromethoxy)benzoyl]-4-piperidyl]-3H-imidazo[4,5-b]pyridin-2-one]",203 nM,282 nM
"O=C(c1ccc(OC(F)(F)F)cc1)N1CCC(n2c(=O)[nH]c3ncc(C4CCCC(=NO)CC4)cc32)CC1 (single isomer, unassigned; isomer 1) [Example 64, (rac)-6-[(4E/Z)-4-hydroxyiminocycloheptyl]-1-[1-[4-(trifluoromethoxy)benzoyl]-4-piperidyl]-3H-imidazo[4,5-b]pyridin-2-one, Isomer 1]",,358 nM
"O=C1CCCC(c2cnc3[nH]c(=O)n(C4CCN(C(=O)c5ccc(OC(F)(F)F)cc5)CC4)c3c2)CC1 (racemic) [Example 63, (rac)-6-(4-oxocycloheptyl)-1-[1-[4-(trifluoromethoxy)benzoyl]-4-piperidyl]-3H-imidazo[4,5-b]pyridine-2-one]",,254 nM
"O=C(c1ccc(OC(F)(F)F)cc1)N1CCC(n2c(=O)[nH]c3ncc([C@H]4CCCC[C@@H](O)C4)cc32)CC1 (racemic) [Example 67, (rac)-cis-6-(3-hydroxycycloheptyl)-1-[1-[4-(trifluoromethoxy)benzoyl]-4-piperidyl]-3H-imidazo[4,5-b]pyridin-2-one]",,358 nM
"O=C(c1ccc(OC(F)(F)F)cc1)N1CCC(n2c(=O)[nH]c3ncc(C4CCCC(=NO)CC4)cc32)CC1 (single isomer, unassigned; isomer 2) [Example 65, (rac)-6-[(4E/Z)-4-hydroxyiminocycloheptyl]-1-[1-[4-(trifluoromethoxy)benzoyl]-4-piperidyl]-3H-imidazo[4,5-b]pyridin-2-one, Isomer 2]",,575 nM
"O=C(c1ccc(OC(F)(F)F)cc1)N1CCC(n2c(=O)[nH]c3ncc([C@@H]4CCC[C@@H](O)CC4)cc32)CC1 (racemic) [Example 61, (rac)-trans-6-(4-hydroxycycloheptyl)-1-[1-[4-(trifluoromethoxy)benzoyl]-4-piperidyl]-3H-imidazo[4,5-b]pyridin-2-one]",,202 nM
"Nc1cc(OC(F)(F)F)ccc1C(=O)N1CCC(n2c(=O)[nH]c3ncc(C45CCNCC4C5)cc32)CC1 (racemic) [Example 28, (rac)-1-[1-[2-amino-4-(trifluoromethoxy)benzoyl]-4-piperidyl]-6-(3-azabicyclo[4.1.0]heptan-6-yl)-3H-imidazo[4,5-b]pyridin-2-one, 2,2,2-trifluoroacetic acid]",533 nM,
"O=C(c1ccc(OC(F)(F)F)cc1)N1CCC(n2c(=O)[nH]c3ncc([C@H]4CCC[C@@H](O)CC4)cc32)CC1 (racemic) [Example 62, (rac)-cis-6-(4-hydroxycycloheptyl)-1-[1-[4-(trifluoromethoxy)benzoyl]-4-piperidyl]-3H-imidazo[4,5-b]pyridin-2-one]",,257 nM
"O=C(c1ccc(OC(F)(F)F)cc1)N1CCC(n2c(=O)[nH]c3ncc([C@@H]4CCCC[C@@H](O)C4)cc32)CC1 (racemic) [Example 66, (rac)-trans-6-(3-hydroxycycloheptyl)-1-[1-[4-(trifluoromethoxy)benzoyl]-4-piperidyl]-3H-imidazo[4,5-b]pyridin-2-one]",,547 nM
